Laboratory results from article PMC9721373 (Antiviral Research, 2022).
Structures can show the parent of a compound that is named as a salt. Where two headings read alike, the source gives them in different places.

Assays:
rVSVΔG-GFP/VSVG = test: microbe, parasite or virus in culture; type: cell-based; conditions: for activity at 10 µM: Vesicular stomatitis virus, HEK-293T, 16 h, read-out: rVSVΔG-GFP/VSVG GFP (%)
rVSVΔG-GFP/SARS2-S [1] = test: microbe, parasite or virus in culture; type: cell-based; conditions: for rVSVΔG-GFP/SARS2-S GFP (%): 10 μM, HEK293T/ACE2, 16 hpi, GFP-positive cells, vehicle-treated = 100%; for activity at 10 µM: Severe acute respiratory syndrome coronavirus 2, HEK-293T, 16 h, read-out: rVSVΔG-GFP/SARS2-S GFP (%)
[2] = target: SARS2-S–NRP-1 binding (rS1 / rNRP-1) (Homo sapiens, UniProt O14786)
VeroE6/TMPRSS2 cells = conditions: 10 μM, 17.5 h
rVSVΔG-GFP/SARS2-S [3] = test: microbe, parasite or virus in culture; conditions: Severe acute respiratory syndrome coronavirus 2, HEK-293T
rVSVΔG-GFP/SARS2-S [4] = test system: rVSVΔG-GFP/SARS2-S
purified ACE2 = conditions: read-out: dissociation constant (KD), ref Lu et al., 2021; cited from earlier work
[5] = 10 μM, HEK293T/ACE2, 16 hpi, GFP-positive cells, vehicle-treated = 100%

SARS2-S–NRP-1 binding (rS1 / rNRP-1), sequence (O14786 22-856): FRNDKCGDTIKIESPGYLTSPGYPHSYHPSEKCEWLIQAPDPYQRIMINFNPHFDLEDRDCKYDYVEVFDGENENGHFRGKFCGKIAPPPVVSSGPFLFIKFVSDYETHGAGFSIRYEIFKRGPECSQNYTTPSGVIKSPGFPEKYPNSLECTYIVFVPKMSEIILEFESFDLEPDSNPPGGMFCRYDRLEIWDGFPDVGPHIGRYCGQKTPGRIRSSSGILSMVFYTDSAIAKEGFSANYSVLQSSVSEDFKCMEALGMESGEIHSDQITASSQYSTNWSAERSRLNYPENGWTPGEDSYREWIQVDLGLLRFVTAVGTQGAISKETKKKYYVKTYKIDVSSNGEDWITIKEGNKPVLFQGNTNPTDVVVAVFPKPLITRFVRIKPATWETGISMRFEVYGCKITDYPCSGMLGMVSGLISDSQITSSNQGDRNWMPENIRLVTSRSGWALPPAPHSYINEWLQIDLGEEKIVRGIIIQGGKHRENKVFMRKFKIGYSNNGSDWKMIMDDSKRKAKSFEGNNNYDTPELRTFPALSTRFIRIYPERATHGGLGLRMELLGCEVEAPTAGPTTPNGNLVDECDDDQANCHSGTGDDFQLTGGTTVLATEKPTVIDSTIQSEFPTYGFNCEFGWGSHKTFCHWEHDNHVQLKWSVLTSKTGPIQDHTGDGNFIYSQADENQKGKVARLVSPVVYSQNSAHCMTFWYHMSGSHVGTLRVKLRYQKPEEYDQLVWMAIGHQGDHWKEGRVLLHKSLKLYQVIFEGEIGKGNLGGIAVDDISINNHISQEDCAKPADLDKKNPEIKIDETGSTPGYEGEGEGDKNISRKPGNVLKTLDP

SMILES	activity at 10 µM (rVSVΔG-GFP/VSVG)	rVSVΔG-GFP/SARS2-S Hoechst (%) (HEK293T/ACE2 cells; human)	rVSVΔG-GFP/VSVG Hoechst (%) (HEK293T/ACE2 cells; human)	activity at 10 µM (rVSVΔG-GFP/SARS2-S [1])	further results
C=CC(=O)Nc1cc(Nc2nccc(-c3cn(C)c4ccccc34)n2)c(OC)cc1N(C)CCN(C)C.CS(=O)(=O)O [AZD-9291 mesylate]					rVSVΔG-GFP/VSVG GFP (%) (rVSVΔG-GFP/VSVG; [5]): 112.06%; rVSVΔG-GFP/SARS2-S Hoechst (%) (HEK293T/ACE2 cells): 98.67%; rVSVΔG-GFP/VSVG Hoechst (%) (HEK293T/ACE2 cells): 98.67%; rVSVΔG-GFP/SARS2-S GFP (%) (rVSVΔG-GFP/SARS2-S [1]): 5.36%
CC(CN(C)C)CN1c2ccccc2Sc2ccccc21 (stereo not shown) [Alimemazine tartrate]					NRP1–S1 Binding (Normalized signal intensity) [2]: inhibited; VeroE6/TMPRSS2 cell viability (VeroE6/TMPRSS2 cells): did not affect; EC50 (rVSVΔG-GFP/SARS2-S [3]): 2.42 µM; SI (CC50/EC50) (rVSVΔG-GFP/SARS2-S [4]): 12.2
Clc1ccc2c(c1)C(N1CCNCC1)=Nc1ccccc1O2 [Amoxapine]	116%	102.06%	99.31%	23.7%	
CN1CC2c3ccccc3Oc3ccc(Cl)cc3C2C1 (stereo not shown) [Asenapine Maleate, Asenapine maleate]		98.20%	95.98%		
CC[C@H]1OC(=O)[C@H](C)[C@@H](O[C@H]2C[C@@](C)(OC)[C@@H](O)[C@H](C)O2)[C@H](C)[C@@H](O[C@@H]2O[C@H](C)C[C@H](N(C)C)[C@H]2O)[C@](C)(O)C[C@@H](C)CN(C)[C@H](C)[C@@H](O)[C@]1(C)O [Azithromycin dihydrate]		100.22%	101.30%		
Cc1c(-c2ccc(O)cc2)n(Cc2ccc(OCCN3CCCCCC3)cc2)c2ccc(O)cc12 [Bazedoxifene acetate]		88.96%	102.51%		
CN(C)CCCN1c2ccccc2Sc2ccc(Cl)cc21 [Chlorpromazine hydrochloride]			97.98%		Kd (purified ACE2): 13.8 µM
C[C@@H](NCCCc1cccc(C(F)(F)F)c1)c1cccc2ccccc12 [Cinacalcet hydrochloride]		97.33%	95.94%		
CN1CCC[C@@H]1CCO[C@](C)(c1ccccc1)c1ccc(Cl)cc1 [Clemastine fumarate]	105%	106.94%	101.47%	12.5%	
CCCCc1oc2ccc(NS(C)(=O)=O)cc2c1C(=O)c1ccc(OCCCN(CCCC)CCCC)cc1 [Dronedarone hydrochloride]		99.72%	101.34%		
NC(N)=NCCC[C@H](NC(=O)c1sccc1NS(=O)(=O)c1cccc2nsnc12)C(=O)O [EG00229]					concentration required to inhibit SARS2-S–NRP-1 binding [2]: 1 mM
OCCN1CCN(CCCN2c3ccccc3Sc3ccc(C(F)(F)F)cc32)CC1 [Fluphenazine hydrochloride, Fluphenazine dihydrochloride]	106%	103.35%	100.59%	19.3%	
Cc1ccc(NC(=O)c2ccc(CN3CCN(C)CC3)cc2)cc1Nc1nccc(-c2cccnc2)n1 [Imatinib Mesylate (STI571), Imatinib Mesylate]		96.53%	94.49%	20.8%	rVSVΔG-GFP/VSVG GFP (%) (rVSVΔG-GFP/VSVG): 103.15%
CNCCC=C1c2ccccc2CCc2ccccc21 [Nortriptyline hydrochloride]	91.7%	81.23%	76.77%	17.4%	
Fc1ccc([C@@H]2CCNC[C@H]2COc2ccc3c(c2)OCO3)cc1 [Paroxetine hydrochloride]		102.73%	98.03%		
OCCN1CCN(CCCN2c3ccccc3Sc3ccc(Cl)cc32)CC1 [Perphenazine]			86.64%		
CN1CCN(CCCN2c3ccccc3Sc3ccc(Cl)cc32)CC1 [Prochlorperazine Maleate, Prochlorperazine dimaleate]	131%	97.05%	93.26%	16.6%	
O=C(c1ccc(OCCN2CCCCC2)cc1)c1c(-c2ccc(O)cc2)sc2cc(O)ccc12 [Raloxifene hydrochloride]		101.70%	103.53%		
CN[C@H]1CC[C@@H](c2ccc(Cl)c(Cl)c2)c2ccccc21 [Sertraline hydrochloride]	105%	101.27%	97.33%	15.8%	
CC/C(=C(\c1ccccc1)c1ccc(OCCN(C)C)cc1)c1ccccc1 [Tamoxifen citrate]	106%	99.67%	97.14%	16.3%	
CSc1ccc2c(c1)N(CCC1CCCCN1C)c1ccccc1S2 (stereo not shown) [Thioridazine hydrochloride]	119%	98.59%	95.38%	15.8%	
CN(C)CCOc1ccc(/C(=C(/CCCl)c2ccccc2)c2ccccc2)cc1 [Toremifene citrate]		99.98%	98.74%		rVSVΔG-GFP/VSVG GFP (%) (rVSVΔG-GFP/VSVG; [5]): 109.35%; rVSVΔG-GFP/SARS2-S GFP (%) (rVSVΔG-GFP/SARS2-S [1]): 8.32%
CN(C)CCOc1ccc(/C(=C(/CCCl)c2ccccc2)c2ccccc2)cc1 [Toremifene]		101.27%	90.44%		rVSVΔG-GFP/VSVG GFP (%) (rVSVΔG-GFP/VSVG; [5]): 142.24%; rVSVΔG-GFP/SARS2-S GFP (%) (rVSVΔG-GFP/SARS2-S [1]): 21.77%
CN1CCN(CCCN2c3ccccc3Sc3ccc(C(F)(F)F)cc32)CC1 [Trifluoperazine dihydrochloride]		107.56%	97.29%		Kd (purified ACE2): 33.3 µM
CC(CN(C)C)CN1c2ccccc2CCc2ccccc21 (stereo not shown) [Trimipramine maleate]			99.90%		
COc1cc2c(Nc3ccc(Br)cc3F)ncnc2cc1OCC1CCN(C)CC1 [Vandetanib (ZD6474), Vandetanib]		104.11%	99.04%		
